Test results from patent US20240002343A1, “COMPOUNDS HAVING INHIBITORY EFFECT ON MITOCHONDRIAL HYPERFISSION” (KYUSHU UNIVERSITY, NATIONAL UNIVERSITY CORPORATION, priority 2020, published 2024).

Legend:
[1] = system: cardiomyocytes derived from neonatal rats; experiment: Inhibitory effect on mitochondrial hyperfission by hypoxic stimulation; type: cell-based, rat; conditions: 0.3 μM, 1 hour preincubation, 18 hours hypoxic environment; compared with cilnidipine positive control
Experimental: A system for evaluating quantitatively the degree of mitochondrial division in cells was constructed. Specifically, cardiomyocytes derived from neonatal rats were cultured under either normoxia (20%) or hypoxia (1%) for 16 hours. Subsequently, the cells were stained with a fluorescent dye (MitoTracker Green FM, Thermo Fisher Scientific) that selectively stains mitochondria. Then, the mitochondria were observed under a fluorescence microscope, and the mitochondrial morphology was quantitatively measured by image analysis.
FIGS. 2(a) and (b) are each a micrograph and an image explaining a method for quantitatively measuring mitochondrial morphology by image analysis. FIG. 2(a) is a representative fluorescence micrograph showing the general morphology of mitochondria. FIG. 2(b) is an image obtained by filtering the photograph in FIG. 2(a) and extracting the shape of the mitochondria. Image analysis was performed based on the image in FIG. 2(b) to quantify the lengths of mitochondrial fragments. For the quantification, in order to classify the mitochondria into vesicle-shaped, intermediate-shaped and tube-shaped, <3.5 μm is set for vesicle-shaped, 3.6 μm<length<4.2 μm is set for intermediate-shaped, and >4.2 μm is set for tube-shaped, respectively, as thresholds.
The system for evaluation constructed in Test Example 1 was used to evaluate the mitochondrial hyperfission inhibitory effects of the compounds prepared in Examples.
Specifically, at first, each compound was added to the culture medium of cardiomyocytes derived from neonatal rats at a final concentration of 0.3 μM, and the mixture was incubated for 1 hour.
Then, each cells were cultured for an additional 18 hours in a hypoxic environment. Subsequently, mitochondria were stained with MitoTracker Green FM (Thermo Fisher Scientific) or anti-pyruvate dehydrogenase antibody (Abcam) and observed under a fluorescence microscope to quantitatively measure the morphology of mitochondria. For comparison, a group involving cilnidipine as a positive control and a group involving dimethyl sulfoxide (DMSO) as a negative control were also prepared.

[2] = system: Neonatal rat myocardial cells (NRCM); experiment: Cytoprotective effect against cytotoxicity induced by MeHg and hypotonic stimulation (LDH release assay); type: cell-based; conditions: 1 μM pretreatment 1 hour; 50 nM MeHg, 50% hypotonic solution, 2 days; compared with cilnidipine
Experimental: Neonatal rat myocardial cells (NRCM) were seeded at 2.0×10^5 cells/ml in Matrigel-coated 96-well plates. The NRCMs were pretreated by incubating for 1 hour at 37° C., 5% CO2 with 1 μM of each compound 16c and cilnidipine as a positive control, 1 hour before hypotonic stimulation. To provide hypotonic stimulation, the NRCMs were incubated in isotonic solutions (100% DMEM) or 50% hypotonic solutions (50% DMEM and 50% water) in the presence or absence of 50 nM MeHg that a non-neurotoxic concentration, at 37° C. and 5% CO2 for 2 days. Two days later, cytotoxicity was measured by an LDH release assay using a cytotoxic LDH assay kit (Dojindo).

calcium channel = experiment: Calcium antagonism (KCl-induced calcium ion influx, Fura 2-AM); type: cell-based, mouse; conditions: Neuro-2a cells; 0, 1, 10, 100 and 1,000 nM, 30 minutes; potassium chloride 60 mM
Experimental: The compounds prepared in Examples were evaluated for calcium channel blocking activity. Specifically, at first, Neuro-2a cells, mouse-derived neuroblastoma cell line, were cultured in a serum-free medium, and Fura 2-AM (Dojindo Laboratories) that is a calcium ion probe, was added to the medium so that it was taken up by the cells.
Subsequently, after replacing the medium with HEPES buffer (pH 7.4), each compound was each added at final concentrations of 0, 1, 10, 100 and 1,000 nM and the mixtures were incubated for 30 minutes.
Then, depolarization stimulation was applied with potassium chloride (final concentration 60 mM), and the influx of calcium ions into the cells was measured by fluorescence microscopy.
FIGS. 4(a) and (b) are graphs that illustrate the results of measurement of increase in intracellular calcium ion concentration induced by potassium chloride stimulation. Δratio on the vertical axis is expressed by formula (F1) below and represents a value that reflects the intracellular calcium ion concentration.
A ratio=(fluorescence intensity at fluorescence wavelength of 510 nm against an excitation wavelength of 340 nm)/(fluorescence intensity at fluorescence wavelength of 510 nm against an excitation wavelength of 380 nm) Formula (F1)

COCCOC(=O)C1=C(C)NC(C)=C(C(=O)Nc2cccc(C(=O)OC(C)(C)C)c2)C1c1ccccc1 (stereo not drawn) [Compound 16c, 2-Methoxyethyl 5-((3-(tert-butoxycarbonyl)phenyl)carbamoyl)-2,6-dimethyl-4-phenyl-1,4-dihydropyridine-3-carboxylate]
mitochondrial hyperfission inhibitory effect (percentage of cells with vesicle-shaped mitochondria) [1]: the same as or more effect of cilnidipine | cytoprotective effect against MeHg and hypotonic stimulation (LDH release) [2]: cytoprotective effects against MeHg and hypotonic stimulation similar to those of cilnidipine | Ca2+ antagonism (increase in intracellular calcium ion concentration induced by potassium chloride stimulation) (calcium channel): no Ca2+ antagonism
